{"source": "patent US20050009840A1", "about": "(SUGEN, INC., priority 2003, published 2005)", "data": [{"biological_target": "T1, Met kinase domain (GST fusion protein) (Homo sapiens, UniProt P08581)", "T1 construct": "Purified GST fusion protein containing the Met kinase domain", "T1 sequence (P08581 1078-1345 limits assumed)": "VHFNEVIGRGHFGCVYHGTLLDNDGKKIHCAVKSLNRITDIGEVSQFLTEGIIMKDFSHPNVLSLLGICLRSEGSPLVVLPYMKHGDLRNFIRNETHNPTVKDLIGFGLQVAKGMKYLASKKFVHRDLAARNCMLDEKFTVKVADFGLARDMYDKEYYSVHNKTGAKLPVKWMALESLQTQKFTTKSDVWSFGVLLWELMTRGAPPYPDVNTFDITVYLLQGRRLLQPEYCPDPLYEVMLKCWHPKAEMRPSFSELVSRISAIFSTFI", "assay": "Met transphosphorylation assay (ELISA, poly(glu-tyr) substrate);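 note: Cell-free ELISA with plate-bound poly(Glu:Tyr 4:1) phosphorylated by GST-fused Met kinase domain plus ATP and Mn2+, phosphotyrosine detected by anti-phosphotyrosine antibody with HRP and ABTS read-out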", "assay_type": "biochemical", "conditions": "Table 2; read-out: Met IC50", "units": {"IC50": "nM"}, "values": [{"smiles": "Nc1ncc(-c2ccc(NS(=O)(=O)CCN3CCC[C@H]3CO)cc2)cc1OCc1c(F)ccc(F)c1Cl", "note": "[Example I-253, 2-[(2S)-2-Hydroxymethyl-pyrrolidin-1-yl]-ethanesulfonic acid {4-[6-amino-5-(2-chloro-3,6-difluoro-benzyloxy)-pyridin-3-yl]-phenyl}-amide]", "IC50": 97}, {"smiles": "Nc1ncc(-c2ccc(NS(=O)(=O)CCN3CCN(C(=O)CO)CC3)cc2)cc1OCc1c(F)ccc(F)c1Cl", "note": "[Example I-254, 2-[4-(2-Hydroxy-acetyl)-piperazin-1-yl]-ethanesulfonic acid {4-[6-amino-5-(2-chloro-3,6-difluoro-benzyloxy)-pyridin 3-yl]-phenyl}-amide]", "IC50": 180}, {"smiles": "CC(=O)N1CCN(CCS(=O)(=O)Nc2cccc(-c3cnc(N)c(OCc4c(F)ccc(F)c4Cl)c3)c2)CC1", "note": "[Example I-255, 2-(4-Acetyl-piperazin-1-yl)-ethanesulfonic acid {3-[6-amino-5-(2-chloro-3,6-difluoro-benzyloxy)-pyridin-3-yl]-phenyl}-amide]", "IC50": 680}, {"smiles": "Nc1ncc(-c2cccc(NS(=O)(=O)CCN3CCCC3)c2)cc1OCc1c(F)ccc(F)c1Cl", "note": "[Example I-256, 2-Pyrrolidin-1-yl-ethanesulfonic acid {3-[6-amino-5-(2-chloro-3,6-difluoro-benzyloxy)-pyridin-3-yl]-phenyl}-amide]", "IC50": 230}, {"smiles": "Nc1ncc(-c2cccc(NS(=O)(=O)CCN3CCOCC3)c2)cc1OCc1c(F)ccc(F)c1Cl", "note": "[Example I-257, 2-Morpholin-4-yl-ethanesulfonic acid {3-[6-amino-5-(2-chloro-3,6-difluoro-benzyloxy)-pyridin-3-yl]-phenyl}-amide]", "IC50": 1640}, {"smiles": "CCN(CC)CCS(=O)(=O)Nc1cccc(-c2cnc(N)c(OCc3c(F)ccc(F)c3Cl)c2)c1", "note": "[Example I-258, 2-Diethylamino-ethanesulfonic acid {3-[6-amino-5-(2-chloro-3,6-difluoro-benzyloxy)-pyridin-3-yl]-phenyl}amide]", "IC50": 1670}, {"smiles": "CN(C)CCS(=O)(=O)Nc1cccc(-c2cnc(N)c(OCc3c(F)ccc(F)c3Cl)c2)c1", "note": "[Example I-259, 2-Dimethylamino-ethanesulfonic acid {3-[6-amino-5-(2-chloro-3,6-difluoro-benzyloxy)-pyridin-3-yl]-phenyl}-amide]", "IC50": 500}, {"smiles": "Nc1ncc(-c2cccc(NS(=O)(=O)CCN3CCCCC3)c2)cc1OCc1c(F)ccc(F)c1Cl", "note": "[Example I-260, 2-Pipendin-1-yl-ethanesulfonic acid {3-[6-amino-5-(2-chloro-3,6-difluoro-benzyloxy)-pyridin-3-yl]-phenyl}-amide]", "IC50": 1630}, {"smiles": "Nc1ncc(-c2cccc(NS(=O)(=O)CCN3CC[C@@H](CO)C3)c2)cc1OCc1c(F)ccc(F)c1Cl", "note": "[Example I-261, 2-[(3R)-3-Hydroxymethyl-pyrrolidin-1-yl]-ethanesulfonic acid {3-[6-amino-5-(2-chloro-3,6-difluoro-benzyloxy)-pyridin-3-yl]-phenyl}-amide]", "IC50": 1700}, {"smiles": "Nc1ncc(-c2cccc(NS(=O)(=O)CCN3CCC(O)CC3)c2)cc1OCc1c(F)ccc(F)c1Cl", "note": "[Example I-262, 2-(4-Hydroxy-piperidin-1-yl)-ethanesulfonic acid {3-[6-amino-5-(2-chloro-3,6-difluoro-benzyloxy)-pyridin-3-yl]-phenyl}-amide]", "IC50": 1500}, {"smiles": "Nc1ncc(-c2cccc(NS(=O)(=O)CCN3CCN(C(=O)CO)CC3)c2)cc1OCc1c(F)ccc(F)c1Cl", "note": "[Example I-263, 2-[4-(2-Hydroxy-acetyl)-piperazin-1-yl]-ethanesulfonic acid {3-[6-amino-5-(2-chloro-3,6-difluoro-benzyloxy)-pyridin-3-yl]-phenyl}-amide]", "IC50": 1140}, {"smiles": "Nc1ncc(-c2cccc(NS(=O)(=O)CCN3CC[C@@H](O)C3)c2)cc1OCc1c(F)ccc(F)c1Cl", "note": "[Example I-264, 2-[(3R)-3-Hydroxy-pyrrolidin-1-yl]-ethanesulfonic acid {3-[6-amino-5-(2-chloro-3,6-difluoro-benzyloxy)-pyridin-3-yl]-phenyl}-amide]", "IC50": 1100}, {"smiles": "Nc1ncc(-c2cccc(NS(=O)(=O)CCNCC3CC3)c2)cc1OCc1c(F)ccc(F)c1Cl", "note": "[Example I-265, 2-(Cyclopropylmethyl-amino)-ethanesulfonic acid {3-[6-amino-5-(2-chloro-3,6-difluoro-benzyloxy)-pyridin-3-yl]-phenyl}-amide]", "IC50": 1000}, {"smiles": "Nc1ncc(-c2cccc(NS(=O)(=O)CCNC3CC3)c2)cc1OCc1c(F)ccc(F)c1Cl", "note": "[Example I-266, 2-Cyclopropylamino-ethanesulfonic acid {3-[6-amino-5-(2-chloro-3,6-difluoro-benzyloxy)-pyridin-3-yl]-phenyl}-amide]", "IC50": 900}, {"smiles": "Nc1ncc(-c2cccc(N3CCCC3)c2)cc1OCc1c(F)ccc(F)c1Cl", "note": "[Example I-268, 3-(2-Chloro-3,6-difluoro-benzyloxy)-5-(3-pyrrolidin-1-yl-phenyl)-pyridin-2-ylamine; compound with trifluoro-acetic acid]", "IC50": 4000}, {"smiles": "CC(Oc1cc(-c2ccc(NS(=O)(=O)CCN3CCCCC3)cc2)cnc1N)c1c(F)ccc(F)c1Cl", "note": "(stereo not drawn) [Example I-286, 2-Piperidin-1-yl-ethanesulfonic acid (4-{6-amino-5-[1-(2-cloro-3,6-difluoro-phenyl)-ethoxy]-pyridin-3-yl}-phenyl)-amide]", "IC50": 180}, {"smiles": "CC(Oc1cc(-c2ccc(NS(=O)(=O)CCN3CCC(O)CC3)cc2)cnc1N)c1c(F)ccc(F)c1Cl", "note": "(stereo not drawn) [Example I-287, 2-(4-Hydroxy-piperidin-1-yl)-ethanesulfonic acid (4-{6-amino-5-[1-(2-chloro-3,6-difluoro-phenyl)-ethoxy]-pyridin-3-yl}-phenyl)-amide]", "IC50": 140}, {"smiles": "CC(Oc1cc(-c2ccc(NS(=O)(=O)CCN(C)C)cc2)cnc1N)c1c(F)ccc(F)c1Cl", "note": "(stereo not drawn) [Example I-288]", "IC50": 150}, {"smiles": "CC(Oc1cc(-c2ccc(NS(=O)(=O)CCNC3CC3)cc2)cnc1N)c1c(F)ccc(F)c1Cl", "note": "(stereo not drawn) [Example I-289, 2-Cyclopropylamino-ethanesulfonic acid (4-{6-amino-5-[1-(2-chloro-3,6-difluoro-phenyl)-ethoxy]-pyridin-3-yl}-phenyl)-amide]", "IC50": 160}, {"smiles": "CC(Oc1cc(-c2cccc(C(=O)N3CC[C@@H](N)C3)c2)cnc1N)c1c(Cl)ccc(F)c1Cl", "note": "(stereo partly drawn) [Example I-293]", "IC50": 51}, {"smiles": "CC(Oc1cc(-c2ccc(C(=O)N3CCN(C)CC3)cc2)cnc1N)c1c(Cl)ccc(F)c1Cl", "note": "(stereo not drawn) [Example I-295, (4-{6-Amino-5-[1-(2,6-dichloro-3-fluoro-phenyl)-ethoxy]-pyridin-3-yl}-phenyl)-(4-methyl-piperazin-1-yl)-methanone]", "IC50": 79}, {"smiles": "CC(Oc1cc(-c2ccc(NS(=O)(=O)CCNC3CC3)cc2)cnc1N)c1c(Cl)ccc(F)c1Cl", "note": "(stereo not drawn) [Example I-297, 2-Cyclopropylamino-ethanesulfonic acid (4-{6-amino-5-[1-(2,6-dichloro-3-fluoro-phenyl)-ethoxy]-pyridin-3-yl}-phenyl)-amide]", "IC50": 164}, {"smiles": "CC(Oc1cc(-c2ccc(NS(=O)(=O)CCN3CC[C@@H](O)C3)cc2)cnc1N)c1c(Cl)ccc(F)c1Cl", "note": "(stereo partly drawn) [Example I-299]", "IC50": 62}, {"smiles": "CC(Oc1cc(-c2ccc(C(=O)NCCCN3CCCC3)cc2)cnc1N)c1c(Cl)ccc(F)c1Cl", "note": "(stereo not drawn) [Example I-301, 4-{6-Amino-5-[1-(2,6-dichloro-3-fluoro-phenyl)-ethoxy]-pyridin-3-yl}-N-(3-pyrrolidin-1-yl-propyl)-benzamide]", "IC50": 64}]}]}
